{"source": "patent US11174518B2", "about": "“Method of classifying and diagnosing cancer” (Cedars-Sinai Medical Center, priority 2015, dated 2021)", "test_system": "circulating tumor cells (CTC) from patients with CRPC", "assay": "Enzalutamide resistance of patient CTCs assigned to PCS subtypes by the 37-gene classifier", "format": "in vivo, human", "conditions": "for Enzalutamide resistance / Enzalutamide resistance: proportion of CTCs from patients with enzalutamide-resistant tumors: patient CTCs", "from_the_text": "A random forest machine learning algorithm was employed to develop a diagnostic gene panel. For parameter estimation and training the model, we used the merged dataset. Initially, the model comprised of the 428 SEGs as a set of predictors and subtype label of the merged dataset was used as a response variable for model training. […] We then permuted the values for each gene across every sample and measured how much worse MSE became after the permutation. […] We analyzed single-cell RNA-seq data from 77 intact CTCs isolated from 13 patients (Miyamoto D T, Zheng […], Lee R J, Zhu H, Broderick K T, et al. RNA-Seq of single prostate CTCs implicates noncanonical Wnt signaling in antiandrogen resistance. Science 2015; 349:1351-6). Prior to the clustering analysis to investigate the expression patterns of these CTC data, the normalized read counts as read-per-million (RPM) mapped reads were transformed on a log 2 scale for each gene.", "data": [{"compound": "CNC(=O)c1ccc(N2C(=S)N(c3ccc(C#N)c(C(F)(F)F)c3)C(=O)C2(C)C)cc1F", "note": "[Enzalutamide, enzalutamide]", "values": [{"measurement": "OR for CTCs from patients with radiographic and/or PSA progression during enzalutamide therapy", "setting": "GROUP II CTCs (high expression of PCS1-enriched genes), 5 of the 7 CTCs, 95% confidence interval 0.49-6.06", "result": 1.74}, {"measurement": "Enzalutamide resistance", "setting": "PCS1 subtype", "result": "Yes"}, {"measurement": "Enzalutamide resistance: proportion of CTCs from patients with enzalutamide-resistant tumors", "setting": "PCS1 subtype (7 CTCs out of 12)", "result": 58, "unit": "%"}, {"measurement": "Enzalutamide resistance", "setting": "PCS2 subtype", "result": "No"}, {"measurement": "Enzalutamide resistance: proportion of CTCs from patients with enzalutamide-resistant tumors", "setting": "PCS2 subtype (5 CTCs out of 65)", "result": 8, "unit": "%"}]}]}
